Source: patent US20170007554A1, “MEDICINE FOR PREVENTING ISCHEMIC DISEASES” (JX NIPPON OIL & ENERGY CORPORATION, priority 2014, published 2017)

System: RGC-5 cells
Experiment: Cytoprotective action under OGD stress (dead cell rate, nuclear staining)
Format: cell-based
Details: no OGD stress
Protocol: The RGC-5 cell line is a cell line from rat retinal ganglion cells and used for in vitro tests for cell damage evaluation. The RGC-5 cell line can be cultured in accordance with the method disclosed in NAKAJIMA Y. et al., Zeaxanthin, a Retinal Carotenoid, Protects Retinal Cells against Oxidative Stress, Current Eye Research, 2009, Vol. 34, pp. 311-318.
Here, the expression OGD stress refers to a state in which the supply of oxygen and glucose is restricted.
RGC-5 cells were added at a concentration of 1×10^3 cells/well to a DMEM medium containing glucose […] that was concentrated at 4.5 times the general concentration and fetal bovine serum (FBS: 10%) of Oseanian origin that was concentrated at 10 times the general concentration, followed by culture for 24 hours. […]
Then, the mixture was washed twice with FBS-free base medium, followed by culture in DMEM medium containing high-concentration glucose […] and general-concentration FBS (1%) for 18 hours. The dead cell rate and the state of reactive oxygen species (ROS) generation were determined via nuclear staining. […] Meanwhile, the state of reactive oxygen species (ROS) generation was determined in accordance with the method disclosed in NAKAJIMA Y. et al., Zeaxanthin, a Retinal Carotenoid, Protects Retinal Cells against Oxidative Stress, Current Eye Research, 2009, Vol. 34, pp. 311-318. […]

With `CC1=NN(c2ccccc2)C(=O)C1` [Edaravone] the “cell death in the absence of OGD stress” value was “did not cause cell death”.
